Structures are written as SMILES.

The subject of the experiment is HBV. Briefly: HBV inhibition assay in HepG2.2.15 cells (extracellular HBV DNA by qPCR). It counts as cell-based. The following applies: Hepatitis B virus, 120 h, extracellular HBV DNA in culture supernatant by qPCR, five days after compound treatment. Here is the method: HepG2.2.15 is a stably-transfected cell line containing the HBV genome. It is derived from the hepatoblastoma cell line Hep G2 (American Type Culture Collection, ATCC® HB-8065™) by the published procedures described in reference: M A Selles et al. Proc. Natl. Acad. Sci. USA 1987, 84, 1005-1009. The cell line was maintained in Dulbecco's modified Eagle's medium (DMEM)-F12 medium supplemented with 10% fetal bovine serum, 20 mM L-glutamine, 0.1 mM NEAA, 50 U/mL penicillin, 50 μg/mL streptomycin, and 0.3 mg/mL of G418.
HepG2.2.15 cells were seeded into 96-well plates at a density of 3×10^4 cells per well in 100 μL DMEM/F12 media (Life Science, Cat. #: 11320-033) supplemented with 2.5% fetal bovine serum, 20 mM L-glutamine, 0.1 mM NEAA, 50 U/mL penicillin, 50 U/mL streptomycin and cultured overnight at 37° C. The test compounds were serially half-log diluted in DMSO, then diluted 100 times in culture media. 100 μL diluted solution of tested compounds were added into the plates to reach 0.5% final concentration of DMSO in every well. Five days after compound treatment, culture supernatant was collected for further analysis.
For quantitative PCR detection of extracellular HBV DNA, culture supernatant was processed by 500 μg/mL Proteinase K (Sigma, Cat. #: P2308) digestion at 50° C. for 1 hour. After heat inactivation of the enzyme at 95° C. for 15 minutes, the samples were subjected to HBV DNA quantification by qPCR. The effective compound concentration at which HBV replication inhibited by 50% (EC50) was determined.
(In general: Real-time PCR tracks product formation cycle by cycle.)

As for `CC(=O)N(C)c1cnn2c1CN(C(=O)Nc1cc(F)c(F)c(F)c1)[C@@H](C)C2` [Example 38, (6S)-3-[acetyl(methyl)amino]-6-methyl-N-(3,4,5-trifluorophenyl)-6,7-dihydro-4H-pyrazolo[1,5-a]pyrazine-5-carboxamide], it took 457 nM to reach a half-maximal effect (EC50).

For the molecule `C[C@H]1Cn2ncc(OC3CCOCC3)c2CN1C(=O)Nc1ccc(F)c(Cl)c1` [Example 4, (6S)-N-(3-chloro-4-fluoro-phenyl)-6-methyl-3-tetrahydropyran-4-yloxy-6,7-dihydro-4H-pyrazolo[1,5-a]pyrazine-5-carboxamide], the EC50 (commonly the concentration that produces a half-maximal response) is 107 nM.

With `C[C@H]1Cn2ncc(S(=O)(=O)N[C@@H]3CCOC3)c2CN1C(=O)Nc1cc(F)c(F)c(F)c1` [Example 30, (6S)-6-methyl-3-[[(3R)-tetrahydrofuran-3-yl]sulfamoyl]-N-(3,4,5-trifluorophenyl)-6,7-dihydro-4H-pyrazolo[1,5-a]pyrazine-5-carboxamide], the EC50 came to 156 nM.

Regarding `C[C@H]1Cn2ncc(S(=O)(=O)C3CCOC3)c2CN1C(=O)Nc1cc(F)c(F)c(F)c1` (stereo partly drawn) [Example 16, (6S)-6-methyl-3-tetrahydrofuran-3-ylsulfonyl-N-(3,4,5-trifluorophenyl)-6,7-dihydro-4H-pyrazolo[1,5-a]pyrazine-5-carboxamide], the EC50 was found to be 77 nM.

On to `CC1Cn2ncc(OC3CCCC3)c2CN1C(=O)Nc1ccc(F)c(Cl)c1` (stereo not drawn) [Example 2, N-(3-chloro-4-fluoro-phenyl)-3-(cyclopentoxy)-6-methyl-6,7-dihydro-4H-pyrazolo[1,5-a]pyrazine-5-carboxamide], for which the EC50 worked out at 8 nM. This EC50 is about 9.6-fold lower than that of the molecule before.

`COCCS(=O)(=O)N(C)c1cnn2c1CN(C(=O)Nc1cc(F)c(F)c(F)c1)[C@@H](C)C2` [Example 39, (6S)-3-[2-methoxyethylsulfonyl(methyl)amino]-6-methyl-N-(3,4,5-trifluorophenyl)-6,7-dihydro-4H-pyrazolo[1,5-a]pyrazine-5-carboxamide] returned an EC50 of 664 nM.

Take `CC1Cn2ncc(S(=O)(=O)C3CCOC3)c2CN1C(=O)Nc1ccc(F)c(Cl)c1` (stereo not drawn) [Example 10, N-(3-chloro-4-fluoro-phenyl)-6-methyl-3-tetrahydrofuran-3-ylsulfonyl-6,7-dihydro-4H-pyrazolo[1,5-a]pyrazine-5-carboxamide]: the EC50 is 32 nM.

For `C[C@H]1Cn2ncc(S(=O)(=O)N[C@H]3CCOC3)c2CN1C(=O)Nc1ccc(F)c(Cl)c1` [Example 26, (6S)-N-(3-chloro-4-fluoro-phenyl)-6-methyl-3-[[(3S)-tetrahydrofuran-3-yl]sulfamoyl]-6,7-dihydro-4H-pyrazolo[1,5-a]pyrazine-5-carboxamide], the EC50 came to 365 nM.

For the molecule `C[C@H]1Cn2ncc(S(=O)(=O)C3CCOC3)c2CN1C(=O)Nc1ccc(F)c(Cl)c1` (stereo partly drawn) [Example 14, (6S)-N-(3-chloro-4-fluoro-phenyl)-6-methyl-3-tetrahydrofuran-3-ylsulfonyl-6,7-dihydro-4H-pyrazolo[1,5-a]pyrazine-5-carboxamide], the EC50 came out at 55 nM.

With `C[C@H]1Cn2ncc(S(=O)(=O)C3CCC(O)C3)c2CN1C(=O)Nc1cc(F)c(F)c(F)c1` (stereo partly drawn) [Example 34, (6S)-3-(3-hydroxycyclopentyl)sulfonyl-6-methyl-N-(3,4,5-trifluorophenyl)-6,7-dihydro-4H-pyrazolo[1,5-a]pyrazine-5-carboxamide], it took 96 nM to reach a half-maximal effect (EC50). Against the preceding molecule, the EC50 is about 1.7-fold higher.

With `C[C@H]1Cn2ncc(S(=O)(=O)C3CCCC3)c2CN1C(=O)Nc1ccnc(Cl)c1` [Example 19, (6S)-N-(2-chloro-4-pyridyl)-3-cyclopentylsulfonyl-6-methyl-6,7-dihydro-4H-pyrazolo[1,5-a]pyrazine-5-carboxamide], a half-maximal effect (EC50) was put at 134 nM.

As for `CCS(=O)(=O)N(C)c1cnn2c1CN(C(=O)Nc1cc(F)c(F)c(F)c1)[C@@H](C)C2` [Example 40, (6S)-3-[ethylsulfonyl(methyl)amino]-6-methyl-N-(3,4,5-trifluorophenyl)-6,7-dihydro-4H-pyrazolo[1,5-a]pyrazine-5-carboxamide], it took 169 nM to reach a half-maximal effect (EC50).

For `CC(C)CS(=O)(=O)c1cnn2c1CN(C(=O)Nc1ccc(F)c(Cl)c1)C(C)C2` (stereo not drawn) [Example 13, N-(3-chloro-4-fluoro-phenyl)-3-isobutylsulfonyl-6-methyl-6,7-dihydro-4H-pyrazolo[1,5-a]pyrazine-5-carboxamide], the EC50 came out at 24 nM. Against the preceding molecule, the EC50 is about 7-fold lower.

In turn, `CC(C)S(=O)(=O)c1cnn2c1CN(C(=O)Nc1ccnc(Cl)c1)[C@@H](C)C2` [Example 18, (6S)-N-(2-chloro-4-pyridyl)-3-isopropylsulfonyl-6-methyl-6,7-dihydro-4H-pyrazolo[1,5-a]pyrazine-5-carboxamide] registered an EC50 of 471 nM.

Molecule `C[C@H]1Cn2ncc(Oc3ccc(F)cn3)c2CN1C(=O)Nc1cc(F)c(F)c(F)c1` [Example 9, (6S)-3-[(5-fluoro-2-pyridyl)oxy]-6-methyl-N-(3,4,5-trifluorophenyl)-6,7-dihydro-4H-pyrazolo[1,5-a]pyrazine-5-carboxamide] showed an EC50 of 240 nM.

In the case of `C[C@H]1Cn2ncc(S(=O)(=O)C3CCOC3)c2CN1C(=O)Nc1ccnc(Cl)c1` (stereo partly drawn) [Example 17, (6S)-N-(2-chloro-4-pyridyl)-6-methyl-3-tetrahydrofuran-3-ylsulfonyl-6,7-dihydro-4H-pyrazolo[1,5-a]pyrazine-5-carboxamide], the EC50 came to 871 nM.

In turn, `C[C@H]1Cn2ncc(S(=O)(=O)N3CCCC3)c2CN1C(=O)Nc1ccc(F)c(Cl)c1` [Example 23, (6S)-N-(3-chloro-4-fluoro-phenyl)-6-methyl-3-pyrrolidin-1-ylsulfonyl-6,7-dihydro-4H-pyrazolo[1,5-a]pyrazine-5-carboxamide] returned an EC50 of 78 nM.

`C[C@H]1Cn2ncc(OC3CCN(S(C)(=O)=O)CC3)c2CN1C(=O)Nc1ccc(F)c(Cl)c1` [Example 6, (6S)-N-(3-chloro-4-fluoro-phenyl)-6-methyl-3-[(1-methylsulfonyl-4-piperidyl)oxy]-6,7-dihydro-4H-pyrazolo[1,5-a]pyrazine-5-carboxamide]: a half-maximal effect (EC50) was put at 310 nM.

Take `C[C@H]1Cn2ncc(OC3CCOC3)c2CN1C(=O)Nc1ccc(F)c(Cl)c1` (stereo partly drawn) [Example 3, (6S)-N-(3-chloro-4-fluoro-phenyl)-6-methyl-3-tetrahydrofuran-3-yloxy-6,7-dihydro-4H-pyrazolo[1,5-a]pyrazine-5-carboxamide]: the midpoint of the response, the EC50, lay at 151 nM.

Consider `C[C@H]1Cn2ncc(OC3CCNC3=O)c2CN1C(=O)Nc1ccc(F)c(Cl)c1` (stereo partly drawn) [Example 5, (6S)-N-(3-chloro-4-fluoro-phenyl)-6-methyl-3-(2-oxopyrrolidin-3-yl)oxy-6,7-dihydro-4H-pyrazolo[1,5-a]pyrazine-5-carboxamide], for which the EC50 was determined as 434 nM.

In the case of `CC(C)Oc1cnn2c1CN(C(=O)Nc1ccc(F)c(Cl)c1)C(C)C2` (stereo not drawn) [Example 1, N-(3-chloro-4-fluoro-phenyl)-3-isopropoxy-6-methyl-6,7-dihydro-4H-pyrazolo[1,5-a]pyrazine-5-carboxamide], the EC50 was 18 nM.

`CC1Cn2ncc(S(=O)(=O)C3CCCC3)c2CN1C(=O)Nc1ccc(F)c(Cl)c1` (stereo not drawn) [Example 11, N-(3-chloro-4-fluoro-phenyl)-3-cyclopentylsulfonyl-6-methyl-6,7-dihydro-4H-pyrazolo[1,5-a]pyrazine-5-carboxamide]: the EC50 amounted to 11 nM.

In the case of `C[C@H]1Cn2ncc(S(=O)(=O)N3CC(F)(F)C3)c2CN1C(=O)Nc1cc(F)c(F)c(F)c1` [Example 31, (6S)-3-(3,3-difluoroazetidin-1-yl)sulfonyl-6-methyl-N-(3,4,5-trifluorophenyl)-6,7-dihydro-4H-pyrazolo[1,5-a]pyrazine-5-carboxamide], the EC50 worked out at 22 nM.

`C[C@H]1Cn2ncc(N(C)S(=O)(=O)C3CC3)c2CN1C(=O)Nc1cc(F)c(F)c(F)c1` [Example 41, (6S)-3-[cyclopropylsulfonyl(methyl)amino]-6-methyl-N-(3,4,5-trifluorophenyl)-6,7-dihydro-4H-pyrazolo[1,5-a]pyrazine-5-carboxamide] came in with an EC50 of 86 nM.

Turning to `C[C@H]1Cn2ncc(Oc3ncccn3)c2CN1C(=O)Nc1cc(F)c(F)c(F)c1` [Example 8, (6S)-6-methyl-3-pyrimidin-2-yloxy-N-(3,4,5-trifluorophenyl)-6,7-dihydro-4H-pyrazolo[1,5-a]pyrazine-5-carboxamide], a half-maximal response (EC50) required 713 nM.

`C[C@H]1Cn2ncc(S(=O)(=O)NC(C)(C)CO)c2CN1C(=O)Nc1cc(F)c(F)c(F)c1` [Example 27, (6S)-3-[(2-hydroxy-1,1-dimethyl-ethyl)sulfamoyl]-6-methyl-N-(3,4,5-trifluorophenyl)-6,7-dihydro-4H-pyrazolo[1,5-a]pyrazine-5-carboxamide] gave an EC50 of 156 nM.

In turn, `C[C@H]1Cn2ncc(Oc3ccccn3)c2CN1C(=O)Nc1cc(F)c(F)c(F)c1` [Example 7, (6S)-6-methyl-3-(2-pyridyloxy)-N-(3,4,5-trifluorophenyl)-6,7-dihydro-4H-pyrazolo[1,5-a]pyrazine-5-carboxamide] had an EC50 of 984 nM.

These data come from patent publication US10604527B2, “Pyrazine compounds for the treatment of hepatitis B infection” (Hoffmann-La Roche Inc., priority 2016, dated 2020).
